Target: human CTPS1 (Homo sapiens (Human), UniProt P17812)
Experiment: hCTPS1 biochemical assay (ADP-Glo)
Conditions: hCTPS1 25 nM, ATP 120 uM, UTP 160 uM, GTP 60 uM, L-Glutamine 100 uM, 25 degrees C

human CTPS1, sequence (P17812 whole entry): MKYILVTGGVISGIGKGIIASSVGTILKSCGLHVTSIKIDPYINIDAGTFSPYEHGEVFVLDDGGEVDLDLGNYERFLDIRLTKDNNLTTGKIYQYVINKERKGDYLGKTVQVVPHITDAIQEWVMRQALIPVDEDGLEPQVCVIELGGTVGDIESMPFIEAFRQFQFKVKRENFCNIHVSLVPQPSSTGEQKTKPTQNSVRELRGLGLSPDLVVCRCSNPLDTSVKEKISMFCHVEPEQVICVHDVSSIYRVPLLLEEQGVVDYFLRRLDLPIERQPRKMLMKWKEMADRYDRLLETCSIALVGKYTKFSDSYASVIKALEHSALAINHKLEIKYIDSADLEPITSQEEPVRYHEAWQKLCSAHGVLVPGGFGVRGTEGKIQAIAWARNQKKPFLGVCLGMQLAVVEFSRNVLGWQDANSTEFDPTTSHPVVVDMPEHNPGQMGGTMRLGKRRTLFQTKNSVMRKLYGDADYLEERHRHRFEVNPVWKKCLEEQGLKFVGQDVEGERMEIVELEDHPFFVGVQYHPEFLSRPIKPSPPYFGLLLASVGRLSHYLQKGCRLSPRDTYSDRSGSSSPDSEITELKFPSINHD

`CCOc1cncc(-c2cnc(C(=O)N[C@H](CCN3CC[C@@H](F)C3)c3cc(NS(=O)(=O)C4CC4)ccn3)s2)n1` [I-127, N—((R)-1-(4-(cyclopropanesulfonamido)pyridin-2-yl)-3-((R)-3-fluoropyrrolidin-1-yl)propyl)-5-(6-ethoxypyrazin-2-yl)thiazole-2-carboxamide] and `CCOc1cncc(-c2cnc(C(=O)N[C@H](CCN3CCCC3)c3cc(NS(=O)(=O)C4CC4)ccn3)s2)n1` [I-158, (R)—N-(1-(4-(cyclopropanesulfonamido)pyridin-2-yl)-3-(pyrrolidin-1-yl)propyl)-5-(6-ethoxypyrazin-2-yl)thiazole-2-carboxamide] cannot be ordered by IC50: < 0.1 µM for the first, < 0.1 µM for the second.

Compared with `CCOc1cncc(-c2cnc(C(=O)N[C@H](CN3[C@H](C)COC[C@@H]3C)c3cc(NS(=O)(=O)C4CC4)ccn3)s2)n1` (single isomer, unassigned) [I-110], `CCOc1cncc(-c2cnc(C(=O)N[C@@H](CN3CCC3)c3cc(NS(=O)(=O)C4CC4)ccn3)s2)n1` (single isomer, unassigned) [I-221] is higher in IC50: < 0.1 µM for the first, 0.1 to 1 µM for the second. The first is the more potent here.

First: O=C(NCc1cc(NS(=O)(=O)C2CC2)ccn1)c1ncc(-c2cnc3ccc(Cl)cn23)s1 [I-170]
Second: O=C(NCc1cc(NS(=O)(=O)C2CC2)ccn1)c1ncc(-c2cncc3c(Cl)cnn23)s1 [I-154]
The IC50 of the first is higher: 0.1 to 1 µM for the first, < 0.1 µM for the second.

`C[C@H]1Cc2nc(C(=O)NCc3cc(NS(=O)(=O)C4CC4)ccn3)cnc2N(C2CCC2)C1` [I-263, (S)-5-cyclobutyl-N-((4-(cyclopropanesulfonamido)pyridin-2-yl)methyl)-7-methyl-5,6,7,8-tetrahydropyrido[2,3-b]pyrazine-2-carboxamide] and `CC[C@H]1CCN(c2ncc(C(=O)NCc3cc(NS(=O)(=O)C4CC4)ccn3)nc2C)C1` [I-81] cannot be ordered by IC50: ≥ 1 µM for the first, ≥ 1 µM for the second.

`CCOc1cncc(-c2cnc(C(=O)N[C@H](CN(C)C)c3cc(NS(=O)(=O)C4CC4)ccn3)s2)n1` (single isomer, unassigned) [I-233] and `CCOc1cncc(-c2cnc(C(=O)N[C@@H](CCN(C)C)c3cc(NS(=O)(=O)C4CC4)ccn3)s2)n1` [I-190, (S)—N-(1-(4-(cyclopropanesulfonamido)pyridin-2-yl)-3-(dimethylamino)propyl)-5-(6-ethoxypyrazin-2-yl)thiazole-2-carboxamide] cannot be ordered by IC50: < 0.1 µM for the first, < 0.1 µM for the second.

`CCOc1cncc(-c2cnc(C(=O)NC(CN3CCN(C)CC3)c3cc(NS(=O)(=O)C4CC4)ccn3)s2)n1` (stereo not drawn) [I-207] and `CCOc1cncc(-c2cnc(C(=O)NC(CN3CCCC3)c3cc(NS(=O)(=O)C4CC4)ccn3)s2)n1` (stereo not drawn) [I-208] cannot be ordered by IC50: < 0.1 µM for the first, < 0.1 µM for the second.

`O=C(NC1(c2csc(NS(=O)(=O)C3CC3)n2)CC1)c1cnc2ccccc2c1` [I-5, N-(1-(2-(cyclopropanesulfonamido)thiazol-4-yl)cyclopropyl)quinoline-3-carboxamide] and `O=C(NC1(c2csc(NS(=O)(=O)C3CC3)n2)CC1)c1cc2ccccc2cn1` [I-3, N-(1-(2-(cyclopropanesulfonamido)thiazol-4-yl)cyclopropyl)isoquinoline-3-carboxamide] cannot be ordered by IC50: ≥ 1 µM for the first, ≥ 1 µM for the second.

`CCOc1cncc(-c2cnc(C(=O)N[C@@H](CN3CCOCC3)c3cccc(NS(=O)(=O)C(F)F)c3)s2)n1` [I-247, (R)—N-(1-(3-((difluoromethyl)sulfonamido)phenyl)-2-morpholinoethyl)-5-(6-ethoxypyrazin-2-yl)thiazole-2-carboxamide] and `CCOc1cncc(-c2cnc(C(=O)N[C@H](CCN3CCOCC3)c3cc(NS(=O)(=O)C4CC4)ccn3)s2)n1` [I-164, (R)—N-(1-(4-(cyclopropanesulfonamido)pyridin-2-yl)-3-morpholinopropyl)-5-(6-ethoxypyrazin-2-yl)thiazole-2-carboxamide] cannot be ordered by IC50: < 0.1 µM for the first, < 0.1 µM for the second.

`CCOc1cncc(-c2cnc(C(=O)N[C@@H](CN3C[C@H]4C[C@@H]3CO4)c3cc(NS(=O)(=O)C4CC4)ccn3)s2)n1` [I-113, N—((S)-2-((1R,4R)-2-oxa-5-azabicyclo[2.2.1]heptan-5-yl)-1-(4-(cyclopropanesulfonamido)pyridin-2-yl)ethyl)-5-(6-ethoxypyrazin-2-yl)thiazole-2-carboxamide] and `CCOc1cncc(-c2cnc(C(=O)N[C@H](CN3CCN(C4CC4)CC3)c3cc(NS(=O)(=O)C4CC4)ccn3)s2)n1` (single isomer, unassigned) [I-120] cannot be ordered by IC50: < 0.1 µM for the first, < 0.1 µM for the second.

Compared with `CCOc1cncc(-c2cnc(C(=O)N3CCC[C@@H]3c3cccc(NS(=O)(=O)C4CC4)n3)s2)n1` [I-230, N-[6-[(2R)-1-[5-(6-ethoxypyrazin-2-yl)-1,3-thiazole-2-carbonyl]pyrrolidin-2-yl]pyridin-2-yl]cyclopropanesulfonamide], `CCOc1cncc(-c2ccc(C(=O)N3CCC[C@@H]3c3ccnc(NS(=O)(=O)C4CC4)n3)c(F)c2)n1` [I-285, N-[4-[(2R)-1-[4-(6-ethoxypyrazin-2-yl)-2-fluorobenzoyl]pyrrolidin-2-yl]pyrimidin-2-yl]cyclopropanesulfonamide] is higher in IC50: < 0.1 µM for the first, 0.1 to 1 µM for the second. The first is the more potent here.

`CCOc1cncc(-c2cnc(C(=O)N[C@@H](c3cc(NS(=O)(=O)C4CC4)ccn3)[C@H]3CCOC3)s2)n1` (single isomer, unassigned) [I-92] and `CCOc1cncc(-c2cnc(C(=O)N[C@@H](C[C@H]3CCCCN3C)c3cc(NS(=O)(=O)C4CC4)ccn3)s2)n1` [I-142, N—((S)-1-(4-(cyclopropanesulfonamido)pyridin-2-yl)-2-((R)-1-methylpiperidin-2-yl)ethyl)-5-(6-ethoxypyrazin-2-yl)thiazole-2-carboxamide] cannot be ordered by IC50: < 0.1 µM for the first, < 0.1 µM for the second.

`CCOc1cncc(-c2cnc(C(=O)NC(CCN(C)C)c3cccc(NS(=O)(=O)C4CC4)c3)s2)n1` (stereo not drawn) [I-152, N-(1-(3-(cyclopropanesulfonamido)phenyl)-3-(dimethylamino)propyl)-5-(6-ethoxypyrazin-2-yl)thiazole-2-carboxamide] and `CCOc1cncc(-c2nnc(C(=O)N[C@@H](CC)c3cc(NS(=O)(=O)C4CC4)ccn3)s2)n1` [I-239] cannot be ordered by IC50: < 0.1 µM for the first, < 0.1 µM for the second.

`CCOc1cncc(-c2ccc(C(=O)NCc3cc(NS(=O)(=O)C(F)F)ccn3)nc2)n1` [I-30, N-[[4-(difluoromethanesulfonamido)pyridin-2-yl]methyl]-5-(6-ethoxypyrazin-2-yl) pyridine-2-carboxamide] and `CCOc1cncc(-c2ccc(C(=O)NC3(c4cccc(NS(=O)(=O)C(F)F)c4)CC3)nc2)n1` [I-265, N-[1-[3-(difluoromethanesulfonamido)phenyl]cyclopropyl]-5-(6-ethoxypyrazin-2-yl)pyridine-2-carboxamide] cannot be ordered by IC50: < 0.1 µM for the first, < 0.1 µM for the second.

Compared with `CCOc1cncc(-c2ccc(NC(=O)Cc3cc(NS(=O)(=O)C4CC4)ccn3)cc2)n1` [I-35], `CCOc1cncc(-c2ccc3c(c2)C(=O)N(Cc2cc(NS(=O)(=O)C4CC4)ccn2)C3=O)n1` [I-78, N-(2-[[5-(6-ethoxypyrazin-2-yl)-1,3-dioxoisoindol-2-yl]methyl]pyridin-4-yl) cyclopropane Sulfonamide] is higher in IC50: < 0.1 µM for the first, 0.1 to 1 µM for the second.

`CCOc1cncc(-c2ccc(C(=O)NCc3cnnc(NS(=O)(=O)C4CC4)c3)nc2)n1` [I-246, N-[(6-cyclopropanesulfonamidopyridazin-4-yl)methyl]-5-(6-ethoxypyrazin-2-yl)pyridine-2-carboxamide] and `CCOc1cncc(-c2cnc(C(=O)NCc3c(F)ccc(NS(=O)(=O)C4CC4)c3F)s2)n1` [I-248, N-[(3-cyclopropanesulfonamido-2,6-difluorophenyl)methyl]-5-(6-ethoxypyrazin-2-yl)-1,3-thiazole-2-carboxamide] cannot be ordered by IC50: < 0.1 µM for the first, < 0.1 µM for the second.

Reference: patent US12331046B2, “CTPS1 inhibitors and uses thereof” (Nimbus Clotho, Inc., priority 2020, dated 2025)
